Assay results as given in US10457662B2, “Substituted amides for treating and preventing cancer” (The Regents of the University of Michigan, priority 2015, dated 2019).
Where two headings read alike, the source gives them in different places.

Experiments:
Conditions in all cases: Homo sapiens
[1] = system: Panc-1; assay: MTT assay, Panc-1; type: cell-based
Experimental: (§1) Experiments conducted during the course of developing embodiments for the present invention involved performance of a phenotypic screen of a library of 20,000 small-molecules representing five million compounds. […] Subsequently, a lead optimization campaign was performed to synthesize a series of close analogs. Initially, the 50 analogs were tested in three pancreatic cancer cell lines using MTT assay (Table 1).
(§2) For in vitro studies, compounds were dissolved in DMSO at 10 mM as stock solutions and stored at −20° C. For in vivo studies, QN523 was dissolved in a vehicle containing 5% DMSO, 35% propylene glycol and 60% saline, and administered at 100 uL through intraperitoneal injections.

[2] = system: MiaPaCa-2; assay: MTT assay, MiaPaCa-2
Experimental: Cells were treated with QN523 for 1, 4, 8, 24, 48, 72 h and left in culture in fresh media. MTT assay was performed 72 h after initiation of treatment. Data points represent Mean±SD from three independent experiments.
as §1, §2

[3] = system: BxPC-3; assay: MTT assay, BxPC-3; type: cell-based
Experimental: as §1, §2

[4] = PANC-1, read-out: IC50 Values Panc-1
[5] = MIA PaCa-2, read-out: IC50 Values MiaPaCa-2, MTT assay, Mean ± SD, three independent experiments
[6] = BXPC-3, read-out: IC50 Values BxPC-3
[7] = PANC-1, MTT assay, Mean ± SD, three independent experiments, read-out: IC50 Values Panc-1
[8] = MIA PaCa-2, read-out: IC50 Values MiaPaCa-2
[9] = BXPC-3, MTT assay, Mean ± SD, three independent experiments, read-out: IC50 Values BxPC-3

SMILES | IC50 [1, 7] [µM] | IC50 [2, 8] [µM] | IC50 [3, 9] [µM] | IC50 [1, 4] [µM] | IC50 [2, 5] [µM] | IC50 [3, 6] [µM] | IC50 ([2]; MIA PaCa-2, read-out: IC50 in MiaPaCa-2, comparison compounds) [µM]
O=C(Nc1cccc2cccnc12)c1ccc(F)nc1 [QN532, 6-Fluoro-N-quinolin-8-yl-nicotinamide] |  |  |  | > 10 | > 10 | > 10 | 
O=C(Nc1cccc2cccnc12)c1ccc(Br)cn1 [QN529, 5-Bromopyridine-2-carboxylic acid quinolin-8-ylamide] |  |  |  | 4 ± 0.8 | 1.83 ± 0.72 | > 10 | 
O=C(Nc1cccc2cccnc12)c1cnc2ccccc2n1 [QN572, Quinoxaline-2-carboxylic acid quinolin-8-ylamide] |  |  |  | > 10 | > 10 | > 10 | 
CN(C)CCOc1cc(NC(=O)c2cnccn2)c2ncccc2c1 [QN147, Pyrazine-2-carboxylic acid [6-(2-dimethylamino-ethoxy)-quinolin-8-yl]-amide] | > 10 | > 10 | > 10 |  |  |  | 
COc1cc(/C=C(\C#N)C(=O)Nc2cccc3cccnc23)cc(OC)c1OC [QN610] | > 10 | > 10 | > 10 |  |  |  | 
CC(C)(C)OC(=O)N1CCC(CCOc2cc(NC(=O)c3ncccn3)c3ncccc3c2)CC1 [QN161, 4-(2-{8-[(Pyrimidine-2-carbonyl)amino]quinolin-6-yloxy}ethyl)piperidine-1-carboxylic acid tert-butyl ester] | > 10 | > 10 | > 10 |  |  |  | 
Cc1cnc(C(=O)Nc2cccc3ncccc23)cn1 [QN521, 5-Methylpyrazine-2-carboxylic acid quinolin-5-ylamide] | > 10 | > 10 | > 10 |  |  |  | 
NCCOc1cc(NC(=O)c2cnccn2)c2ncccc2c1 [QN154, Pyrazine-2-carboxylic acid [6-(2-aminoethoxy)quinolin-8-yl]amide] | > 10 | > 10 | > 10 |  |  |  | 
O=C(Nc1nccc2cccnc12)c1cnccn1 [QN655, Pyrazine-2-carboxylic acid [1,7]naphthyridin-8-ylamide] | 6.72 ± 1.02 | 7.7 ± 1.53 | 7.22 ± 1.02 |  |  |  | 
O=C(Nc1cccc2cccnc12)c1cccnn1 [QN566, Pyridazine-3-carboxylic acid quinolin-8-ylamide] |  |  |  | > 10 | 8.5 ± 1.03 | > 10 | 
O=C(Nc1cccc2cccnc12)c1cnc(Cl)cn1 [QN573, 5-Chloropyrazine-2-carboxylic acid quinolin-8-ylamide] |  |  |  | 9.3 ± 0.8 | 7 ± 1.3 | > 10 | 
CC(COc1ccccc1)N(CCCl)Cc1ccccc1 (stereo not shown) [pheoxybenzamine, reference compound] |  |  |  |  |  |  | > 30
Cc1cnc(C(=O)Nc2cc(OCCN(C)C)cc3cccnc23)cn1 [QN148, 5-Methyl-pyrazine-2-carboxylic acid [6-(2-dimethylamino-ethoxy)-quinolin-8-yl]-amide] | 4.5 ± 0.5 | 1.8 ± 0.46 | 9.67 ± 0.58 |  |  |  | 
Cc1ccc2cccc(NC(=O)c3ncccn3)c2n1 [QN660, Pyrimidine-2-carboxylic acid (2-methylquinolin-8-yl)amide] | > 10 | > 10 | > 10 |  |  |  | 
O=C(Nc1cccc2cccnc12)c1ccc(Br)nc1 [QN524, 6-Bromo-N-quinolin-8-yl-nicotinamide] |  |  |  | > 10 | > 10 | > 10 | 
Cc1cnc(C(=O)Nc2cc(OCCC3CCN(C(=O)OC(C)(C)C)CC3)cc3cccnc23)cn1 [QN160] | 9.67 ± 0.58 | 9 ± 1.73 | 9.33 ± 1.15 |  |  |  | 
Cc1ccc(C(=O)Nc2cccc3cccnc23)cn1 [QN522, 6-Methyl-N-quinolin-8-yl-nicotinamide] |  |  |  | > 10 | > 10 | > 10 | 

Second part, led by results:

IC50 [1, 7] [µM] | IC50 [2, 8] [µM] | IC50 [3, 9] [µM] | SMILES | IC50 [1, 4] [µM] | IC50 [2, 5] [µM] | IC50 [3, 6] [µM] | IC50 ([2]; MIA PaCa-2, read-out: IC50 in MiaPaCa-2, comparison compounds) [µM]
> 10 | > 10 | > 10 | N#C/C(=C\c1cccc(Br)n1)C(=O)Nc1cccc2cccnc12 [QN608] |  |  |  | 
0.2 ± 0.1 | 0.11 ± 0.07 | 0.05 ± 0.02 | Nc1ccn([C@@H]2O[C@H](CO)[C@@H](O)C2(F)F)c(=O)n1 [Gemcitabine, reference compound] |  |  |  | 
> 10 | > 10 | > 10 | Cc1cnc(C(=O)Nc2cccc3ccc(C)nc23)cn1 [QN632, 5-Methylpyrazine-2-carboxylic acid (2-methylquinolin-8-yl)amide] |  |  |  | 
> 10 | > 10 | > 10 | N#C/C(=C\c1ccc(O)c(O)c1)C(=O)Nc1cccc2cccnc12 [QN609] |  |  |  | 
> 10 | > 10 | > 10 | O=C(Nc1cc(OCCC2CCNCC2)cc2cccnc12)c1cnccn1 [QN163, Pyrazine-2-carboxylic acid [6-(2-piperidin-4-yl-ethoxy)quinolin-8-yl]amide] |  |  |  | 
> 10 | > 10 | > 10 | CN(C)Cc1ccc2cccc(NC(=O)c3cnccn3)c2n1 [QN659, Pyrazine-2-carboxylic acid (2-dimethylaminomethyl-quinolin-8-yl)amide] |  |  |  | 
6.83 ± 1.73 | 2.23 ± 0.31 | > 10 | Cc1cnc(C(=O)Nc2ccc(Br)c3cccnc23)cn1 [QN571, 5-Methylpyrazine-2-carboxylic acid (5-bromoquinolin-8-yl)amide] |  |  |  | 
9 ± 1.41 | 1.3 ± 0.35 | > 10 | COc1cc(NC(=O)c2ncccn2)c2ncccc2c1 [QN113] |  |  |  | 
> 10 | > 10 | > 10 | Cc1cnc(C(=O)Nc2cc(OCCN)cc3cccnc23)cn1 [QN156, 5-Methylpyrazine-2-carboxylic acid [6-(2-aminoethoxy)quinolin-8-yl]amide] |  |  |  | 
> 10 | > 10 | > 10 | Cc1ccc2cccc(NC(=O)c3cnccn3)c2n1 [QN634, Pyrazine-2-carboxylic acid (2-methylquinolin-8-yl)amide] |  |  |  | 
8.17 ± 1.61 | 1.7 ± 0.52 | 5.17 ± 1.61 | O=C(Nc1cc(OCCN2CCOCC2)cc2cccnc12)c1cnccn1 [QN137, Pyrazine-2-carboxylic acid [6-(2-morpholin-4-yl-ethoxy)-quinolin-8-yl]-amide] |  |  |  | 
> 10 | > 10 | > 10 | O=C(Nc1cc(OCCC2CCNCC2)cc2cccnc12)c1ncccn1 [QN165, Pyrimidine-2-carboxylic acid [6-(2-piperidin-4-yl-ethoxy)quinolin-8-yl]amide] |  |  |  | 
9.5 ± 0.5 | 3.67 ± 1.15 | 3.33 ± 0.58 | CC(C)(C)OC(=O)N1CCC(CCOc2cc(NC(=O)c3cnccn3)c3ncccc3c2)CC1 [QN159, 4-(2-{8-[(Pyrazine-2-carbonyl)amino]quinolin-6-yloxy}ethyl)piperidine-1-carboxylic acid tert-butyl ester] |  |  |  | 
2.7 ± 0.52 | 2.83 ± 0.76 | > 10 | O=C(Nc1cc(Cl)cc2cccnc12)c1cnccn1 [QN792, N-(6-Chloroquinolin-8-yl)pyrazine-2-carboxamide] |  |  |  | 
> 10 | 6.17 ± 1.04 | 8.33 ± 1.53 | Cc1cnc(C(=O)Nc2cc(OCCC3CCNCC3)cc3cccnc23)cn1 [QN164, 5-Methylpyrazine-2-carboxylic acid [6-(2-piperidin-4-yl-ethoxy)quinolin-8-yl]amide] |  |  |  | 
> 10 | > 10 | > 10 | NCCOc1cc(NC(=O)c2ncccn2)c2ncccc2c1 [QN162, Pyrimidine-2-carboxylic acid [6-(2-aminoethoxy)quinolin-8-yl]amide] |  |  |  | 
